In PubChem BioAssay (NCI):
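Grown in 96-well plates, cells were treated for 48 hours with each compound at five concentrations. Insufficient inhibition: endpoint recorded as highest concentration tested. GI50 = concentration required for 50% inhibition of growth. TGI: total growth inhibition.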

Key:
Experiment in all cases: inhibition of tumour cell growth, NCI panel, 48 h
[1] = tested on: SK-OV-3 ovarian
[2] = tested on: TK-10 renal
[3] = tested on: NCI-H23 lung
[4] = tested on: NCI-H226 lung
[5] = tested on: OVCAR-3 ovarian
[6] = tested on: MALME-3M melanoma
[7] = tested on: SF-539 CNS
[8] = tested on: KM12 colon
[9] = tested on: DU-145 prostate
[10] = tested on: OVCAR-8 ovarian

| SMILES | GI50 [1] | TGI [1] | GI50 [2] | TGI [2] | GI50 [3] | TGI [3] | GI50 [4] | TGI [4] | GI50 [5] | TGI [5] | GI50 [6] | TGI [6] | GI50 [7] | TGI [7] | GI50 [8] | TGI [8] | GI50 [9] | TGI [9] | GI50 [10] | TGI [10] |
| --- | --- | --- | --- | --- | --- | --- | --- | --- | --- | --- | --- | --- | --- | --- | --- | --- | --- | --- | --- | --- |
| COC(=O)[C@]12CC[C@@H](C)[C@H](C)[C@@H]1C1=CC[C@@H]3[C@@](C)(CC#N)C4=C(C[C@@]3(C)[C@]1(C)CC2)OC[C@]4(C)C=O | 4.92 µM | 62.6 µM | 8.07 µM | > 100 µM | 3.88 µM | 40.7 µM | 8.51 µM | 43.7 µM | 3.41 µM | 12.2 µM | 4.76 µM | 27.8 µM | 2.96 µM | 16.6 µM | 6.46 µM | 62.9 µM | 4.78 µM | > 100 µM | 4.5 µM | > 100 µM |
| CCCCOC(=O)c1c(C)[nH]c(/C=C2\N=C(c3ccc[nH]3)C=C2OC)c1C | 1.45 µM | 14.4 µM | 0.185 µM | 5.07 µM | 0.254 µM | 2.6 µM | 0.31 µM | 1.72 µM | 0.151 µM | 1.17 µM | 1.16 µM | 2.82 µM | 0.245 µM | 2 µM | 0.11 µM | 1.86 µM | 0.274 µM | 6.37 µM | 0.216 µM | 13.8 µM |
| O=C(NN1C(=O)CSC1c1c(Cl)cccc1Cl)C(O)c1ccccc1 (stereo not drawn) | > 100 µM | > 100 µM | 78.9 µM | > 100 µM | 19.9 µM | > 100 µM | 38.1 µM | > 100 µM | 21.3 µM | 76.6 µM | 31.7 µM | > 100 µM | > 100 µM | > 100 µM | 34.2 µM | > 100 µM | > 100 µM | > 100 µM | 52 µM | > 100 µM |
| Nc1c(C(=O)Nc2cccc(C(F)(F)F)c2)sc2nc3c(cc12)CCCCCC3 | 2.26 µM | 6.29 µM | 2.18 µM | 5.82 µM | 2.39 µM | 10.6 µM | 1.76 µM | 11.9 µM | 2.17 µM | 4.88 µM | 3.54 µM | 11.3 µM | 1.71 µM | 3.37 µM | 4.08 µM | 23.5 µM | 2.65 µM | 10.2 µM | 2.24 µM | 6.82 µM |
| COc1cc2c(cc1OCCCN1CCN(C(=S)SCCC(C#N)(c3ccccc3)c3ccccc3)CC1)N=C[C@@H]1CCCN1C2=O | 2.52 µM | 6.39 µM | 1.09 µM | 2.87 µM | 1.07 µM | 2.7 µM | 1.51 µM | 3.15 µM | 0.488 µM | 1.26 µM | 0.938 µM | 2.19 µM | 1.45 µM | 3.37 µM | 1.64 µM |  | 0.469 µM |  | 1.31 µM | > 48.3 µM |
| CC[C@@]1(O)C(=O)OCc2c1cc1n(c2=O)Cc2c-1nc1cc(F)c(C)c3c1c2[C@@H](NC(=O)CO)CC3 | 0.0173 µM | 4.96 µM | 0.4 µM | 7.43 µM | < 0.01 µM | 0.0729 µM | < 0.0128 µM | 0.117 µM | 0.0603 µM | 1.65 µM | 0.0304 µM | 1.08 µM | < 0.01 µM | 0.0404 µM | 0.149 µM | > 100 µM | < 0.01 µM | > 100 µM | 0.0132 µM | > 100 µM |
